# Article PMC10326263 (Acta Pharmaceutica Sinica. B, 2023)
# What was measured:
# [1] = test system: HIV-1 mutant strain RES056 (K103N + Y181C); experiment: microbe, parasite or virus in culture; type: cell-based; conditions: Human immunodeficiency virus 1, MT4, read-out: EC50 RES056
# [2] = test system: HIV-1 mutant strain F227L + V106A; experiment: microbe, parasite or virus in culture; type: cell-based; conditions: Human immunodeficiency virus 1, MT4, read-out: EC50 F227L + V106A
# [3] = test system: HIV-1 mutant strain L100I; experiment: microbe, parasite or virus in culture; type: cell-based; conditions: Human immunodeficiency virus 1, MT4, read-out: EC50 L100I
# [4] = test system: HIV-1 mutant strain E138K; experiment: microbe, parasite or virus in culture; type: cell-based; conditions: Human immunodeficiency virus 1, MT4, read-out: EC50 E138K
# [5] = test system: HIV-1 mutant strain Y188L; experiment: microbe, parasite or virus in culture; type: cell-based; conditions: Human immunodeficiency virus 1, MT4, read-out: EC50 Y188L
# [6] = Cytotoxicity in mock-infected MT-4 cells, MTT method; type: cell-based; conditions: human, mock-infected MT-4 cells, CC50, mock-infected MT-4 cells
# HIV-1 WT strain (IIIB) = experiment: Anti-HIV activity against WT HIV-1; conditions: WT HIV-1 IIIB
# [7] = test system: HIV-1 mutant strain Y181C; experiment: microbe, parasite or virus in culture; type: cell-based; conditions: Human immunodeficiency virus 1, MT4, read-out: EC50 Y181C
# [8] = test system: HIV-1 mutant strain K103N; experiment: microbe, parasite or virus in culture; type: cell-based; conditions: Human immunodeficiency virus 1, MT4, read-out: EC50 K103N
SMILES,EC50 [1],EC50 [2],EC50 [3],EC50 [4],EC50 [5],CC50 at 5 days [6],SI IIIB (CC50/EC50 ratio) (HIV-1 WT strain (IIIB)),EC50 [7],EC50 [8]
"Cc1cc(C)cc(S(=O)(=O)c2c(C(=O)NCCCCCNS(=O)(=O)c3ccc(F)cc3)[nH]c3ccc(Cl)cc23)c1 [R4L5, 5-Chloro-3-((3,5-dimethylphenyl)sulfonyl)-N-(5-((4-fluorophenyl)sulfonamido)pentyl)-1H-indole-2-carboxamide]",> 31200 nM,380 ± 17 nM,74 ± 10 nM,73 ± 20 nM,1670 ± 350 nM,144000 ± 13200 nM,7527,180 ± 17 nM,510 ± 210 nM
"Cc1cc(C)cc(S(=O)(=O)c2c(C(=O)NCCNS(=O)(=O)c3ccc(C#N)cc3)[nH]c3ccc(Cl)cc23)c1 [R5L2, 5-Chloro-3-((3,5-dimethylphenyl)sulfonyl)-N-(2-((4-cyanophenyl)sulfonamido)ethyl)-1H-indole-2-carboxamide]",3370 ± 210 nM,1750 ± 53 nM,770 ± 35 nM,1260 nM,3070 ± 120 nM,23600 ± 580 nM,362,890 ± 18 nM,840 ± 35 nM
"Cc1cc(C)cc(S(=O)(=O)c2c(C(=O)NCCCNS(=O)(=O)c3ccc(C#N)cc3)[nH]c3ccc(Cl)cc23)c1 [R5L3, 5-Chloro-3-((3,5-dimethylphenyl)sulfonyl)-N-(3-((4-cyanophenyl)sulfonamido)propyl)-1H-indole-2-carboxamide]",4090 nM,1220 ± 51 nM,330 ± 34 nM,270 ± 17 nM,3340 ± 17 nM,22600 ± 890 nM,732,980 ± 51 nM,920 ± 410 nM
"Cc1cc(C)cc(S(=O)(=O)c2c(C(=O)NCCCCNS(=O)(=O)c3ccc(C#N)cc3)[nH]c3ccc(Cl)cc23)c1 [R5L4, 5-Chloro-3-((3,5-dimethylphenyl)sulfonyl)-N-(4-((4-cyanophenyl)sulfonamido)butyl)-1H-indole-2-carboxamide]",> 4580 nM,82 ± 35 nM,25 ± 2 nM,32 ± 18 nM,150 ± 10 nM,4580 ± 3530 nM,279,54 ± 2 nM,67 ± 5 nM
"Cc1cc(C)cc(S(=O)(=O)c2c(C(=O)NCCCCCNS(=O)(=O)c3ccc(C#N)cc3)[nH]c3ccc(Cl)cc23)c1 [R5L5, 5-Chloro-3-((3,5-dimethylphenyl)sulfonyl)-N-(5-((4-cyanophenyl)sulfonamido)pentyl)-1H-indole-2-carboxamide]",11900 ± 4900 nM,340 ± 82 nM,77 ± 23 nM,160 ± 16 nM,1700 ± 520 nM,> 204000 nM,>6158,210 nM,560 ± 130 nM
"Cc1cc(C)cc(S(=O)(=O)c2c(C(=O)NCCNS(=O)(=O)c3ccc(Br)cc3)[nH]c3ccc(Cl)cc23)c1 [R6L2, 5-Chloro-3-((3,5-dimethylphenyl)sulfonyl)-N-(2-((4-bromophenyl)sulfonamido)ethyl)-1H-indole-2-carboxamide]",≥ 12200 nM,2730 ± 480 nM,750 ± 64 nM,1270 ± 110 nM,≥ 33700 nM,151000 ± 19300 nM,964,1010 ± 32 nM,950 ± 160 nM
"Cc1cc(C)cc(S(=O)(=O)c2c(C(=O)NCCCNS(=O)(=O)c3ccc(Br)cc3)[nH]c3ccc(Cl)cc23)c1 [R6L3, 5-Chloro-3-((3,5-dimethylphenyl)sulfonyl)-N-(3-((4-bromophenyl)sulfonamido)propyl)-1H-indole-2-carboxamide]",> 88100 nM,1480 ± 110 nM,780 ± 140 nM,470 ± 200 nM,5260 ± 1040 nM,88100 ± 18100 nM,645,1320 ± 190 nM,1040 ± 190 nM
"Cc1cc(C)cc(S(=O)(=O)c2c(C(=O)NCCCCNS(=O)(=O)c3ccc(Br)cc3)[nH]c3ccc(Cl)cc23)c1 [R6L4, 5-Chloro-3-((3,5-dimethylphenyl)sulfonyl)-N-(4-((4-bromophenyl)sulfonamido)butyl)-1H-indole-2-carboxamide]",> 26900 nM,510 ± 92 nM,320 ± 150 nM,780 ± 540 nM,1000 ± 150 nM,26900 ± 16900 nM,347,600 ± 31 nM,690 ± 110 nM
"Cc1cc(C)cc(S(=O)(=O)c2c(C(=O)NCCCCCNS(=O)(=O)c3ccc(Br)cc3)[nH]c3ccc(Cl)cc23)c1 [R6L5, 5-Chloro-3-((3,5-dimethylphenyl)sulfonyl)-N-(5-((4-bromophenyl)sulfonamido)pentyl)-1H-indole-2-carboxamide]",> 37900 nM,680 ± 75 nM,120 ± 39 nM,320 ± 15 nM,2470 ± 30 nM,37900 ± 6320 nM,501,350 nM,740 ± 90 nM
"Cc1cc(C)cc(S(=O)(=O)c2c(C(=O)NCCNS(=O)(=O)c3ccc(Cl)cc3)[nH]c3ccc(Cl)cc23)c1 [R7L2, 5-Chloro-3-((3,5-dimethylphenyl)sulfonyl)-N-(2-((4-chlorophenyl)sulfonamido)ethyl)-1H-indole-2-carboxamide]",3090 ± 500 nM,1040 ± 350 nM,170 ± 41 nM,360 ± 17 nM,2660 ± 170 nM,175000 ± 42800 nM,"13,010",310 ± 160 nM,220 nM
"Cc1cc(C)cc(S(=O)(=O)c2c(C(=O)NCCCNS(=O)(=O)c3ccc(Cl)cc3)[nH]c3ccc(Cl)cc23)c1 [R7L3, 5-Chloro-3-((3,5-dimethylphenyl)sulfonyl)-N-(3-((4-chlorophenyl)sulfonamido)propyl)-1H-indole-2-carboxamide]",9000 ± 510 nM,2610 ± 120 nM,98 ± 52 nM,610 ± 120 nM,190 ± 190 nM,> 211000 nM,">12,913",570 ± 250 nM,220 nM
"Cc1cc(C)cc(S(=O)(=O)c2c(C(=O)NCCCCNS(=O)(=O)c3ccc(Cl)cc3)[nH]c3ccc(Cl)cc23)c1 [R7L4, 5-Chloro-3-((3,5-dimethylphenyl)sulfonyl)-N-(4-((4-chlorophenyl)sulfonamido)butyl)-1H-indole-2-carboxamide]",> 89300 nM,260 nM,74 ± 21 nM,51 ± 18 nM,1530 ± 720 nM,89300 ± 17800 nM,"10,389",180 ± 16 nM,130 ± 48 nM
"Cc1cc(C)cc(S(=O)(=O)c2c(C(=O)NCCCCCNS(=O)(=O)c3ccc(Cl)cc3)[nH]c3ccc(Cl)cc23)c1 [R7L5, 5-Chloro-3-((3,5-dimethylphenyl)sulfonyl)-N-(5-((4-chlorophenyl)sulfonamido)pentyl)-1H-indole-2-carboxamide]",> 115000 nM,370 ± 110 nM,61 ± 3.2 nM,52 ± 9 nM,3140 ± 950 nM,115000 ± 8890 nM,"11,132",190 nM,430 ± 140 nM
"Cc1cc(C)cc(S(=O)(=O)c2c(C(=O)NCCNS(=O)(=O)c3cccs3)[nH]c3ccc(Cl)cc23)c1 [R8L2, 5-Chloro-3-((3,5-dimethylphenyl)sulfonyl)-N-(2-(thiophene-2-sulfonamido)ethyl)-1H-indole-2-carboxamide]",4630 ± 1540 nM,1810 ± 180 nM,800 ± 94 nM,1200 ± 18 nM,6240 ± 650 nM,161000 ± 50300 nM,1558,1000 ± 91 nM,1180 ± 91 nM
"Cc1cc(C)cc(S(=O)(=O)c2c(C(=O)NCCCNS(=O)(=O)c3cccs3)[nH]c3ccc(Cl)cc23)c1 [R8L3, 5-Chloro-3-((3,5-dimethylphenyl)sulfonyl)-N-(3-(thiophene-2-sulfonamido)propyl)-1H-indole-2-carboxamide]",5380 ± 1290 nM,1650 ± 270 nM,500 ± 140 nM,280 ± 18 nM,3540 ± 340 nM,121000 ± 33400 nM,2105,1060 ± 18 nM,1030 ± 190 nM
"Cc1cc(C)cc(S(=O)(=O)c2c(C(=O)NCCCCNS(=O)(=O)c3cccs3)[nH]c3ccc(Cl)cc23)c1 [R8L4, 5-Chloro-3-((3,5-dimethylphenyl)sulfonyl)-N-(4-(thiophene-2-sulfonamido)butyl)-1H-indole-2-carboxamide]",> 86500 nM,360 ± 35 nM,130 ± 59 nM,190 ± 17 nM,1050 ± 35 nM,86500 ± 11800 nM,1953,540 nM,470 ± 69 nM
"Cc1cc(C)cc(S(=O)(=O)c2c(C(=O)NCCCCCNS(=O)(=O)c3cccs3)[nH]c3ccc(Cl)cc23)c1 [R8L5, 5-Chloro-3-((3,5-dimethylphenyl)sulfonyl)-N-(5-(thiophene-2-sulfonamido)pentyl)-1H-indole-2-carboxamide]",> 43300 nM,1260 ± 340 nM,170 ± 17 nM,200 ± 51 nM,2710 ± 130 nM,35400 ± 1050 nM,526,730 ± 340 nM,1230 ± 220 nM
